Drawing on US11834450B2, “Compounds having ((3-nitrophenyl)sulfonyl)acetamide as BCL-2 inhibitors” (Eil Therapeutics, Inc., priority 2021, dated 2023), this text covers IC50, CC50 and EC50 for 10 compounds.

Data set [1] concerns the target T1, BCL-2 (Homo sapiens, UniProt P10415).
T1 construct: purchased BPS Bioscience #50222
Nature of the data set: BCL-2 TR-FRET Assay (primary PPI inhibition). It counts as binding. The note with it: 60 min incubation; read-out: BCL2 (IC50 code, BCL-2 TR-FRET). (In general: In TR-FRET formats the signal depends on donor and acceptor labels being close together.)

Data set [2] addresses T2, BCL-XL (Homo sapiens, UniProt Q07817).
T2 construct: purchased BPS Bioscience #50223
Nature of the data set: BCL-XL TR-FRET Assay (primary PPI inhibition). It counts as binding. Conditions: 60 min incubation; read-out: BCLxL (IC50 code, BCL-XL TR-FRET). The method, boiled down: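 10.5 ng His-tagged BCL-XL incubated 60 min with test compound, BCL-XL peptide ligand (1:80), Tb-labelled anti-His donor and dye-labelled acceptor (each 1:100). Displacement read as TR-FRET, excitation 340 nm, emission 620 and 665 nm, 60 μs delay, 500 μs integration.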

The test system of data set [3] is RS4-11 cells. Nature of the data set: Cell viability assay RS4-11 (CellTiter-Glo). Conditions: Homo sapiens, 72 h; RS4-11 cells, 3 days, CellTiter-Glo; read-out: RS4-11 (CC50 code). It counts as cell-based. In short, it runs like this: (§1)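 Cells were seeded at 2000/well (HEK293, in DMEM, pre-incubated a day) or 4000/well (other lines, in RPMI-1640). Serially diluted compound was added and plates incubated 3 days at 37 °C, with viability read by CellTiter-Glo luminescence.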
(In general: In ATP-based viability assays light output follows the ATP content of the culture.)

Data set [4] relates to MOLT-4 cells. The data set can be described thus: Cell viability assay MOLT-4 (CellTiter-Glo). The format is cell-based. The note with it: Homo sapiens, 72 h; MOLT-4 cells, 3 days, CellTiter-Glo; read-out: MOLT-4 (CC50 code). In short, it runs like this: as §1
Data set [5] in a line: Cell viability assay HEK293 (CellTiter-Glo). The format is cell-based. Conditions: human, HEK293 cells, read-out: HEK293 (CC50 code). The method, boiled down:
as §1

The subject of data set [6] is caspase-3 and -7 activities in RS4-11 cells. The data set can be described thus: Cas-3/7 activation (Caspase-Glo 3/7) in RS4-11 cells. The format is cell-based. Conditions: Homo sapiens, 3.5 h at 37° C. and 30 min at r.t., read-out: Cas-3/7 (EC50 code). The procedure:
Assay Principle: The Caspase-Glo 3/7 Assay is homogeneous, luminescent assay that measures caspase-3 and -7 activities. The assay provides a luminogenic caspase-3/7 substrate, which contains the tetrapeptide sequence DEVD, in a reagent optimized for caspase activity.
Assay Procedure: Incubate RS4-11 cells with varying concentrations of test compounds for 3.5 h in a humidified incubator at 37° C. and 5% CO2 and 30 min at r.t. Add 15 μl Caspase-Glo reagent to each well and incubate the plate for 30 min at r.t. Read on ClarioStar Plus instrument.
Materials: Promega Caspase-Glo (Promega, #8212); Frozen RS4-11 cells; 384-well white plate (Corning, #3570).
Instrumentation: ClarioStar Plus; Biomek FX for liquid handling (Beckman Coulter).

T2 sequence (Q07817 whole entry): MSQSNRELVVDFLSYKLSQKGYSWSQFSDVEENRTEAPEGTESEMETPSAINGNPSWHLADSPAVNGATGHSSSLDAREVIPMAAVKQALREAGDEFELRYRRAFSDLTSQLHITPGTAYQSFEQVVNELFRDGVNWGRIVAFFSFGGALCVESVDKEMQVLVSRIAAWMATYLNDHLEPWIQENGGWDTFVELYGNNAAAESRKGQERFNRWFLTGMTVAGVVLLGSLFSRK
T1 sequence (P10415 whole entry): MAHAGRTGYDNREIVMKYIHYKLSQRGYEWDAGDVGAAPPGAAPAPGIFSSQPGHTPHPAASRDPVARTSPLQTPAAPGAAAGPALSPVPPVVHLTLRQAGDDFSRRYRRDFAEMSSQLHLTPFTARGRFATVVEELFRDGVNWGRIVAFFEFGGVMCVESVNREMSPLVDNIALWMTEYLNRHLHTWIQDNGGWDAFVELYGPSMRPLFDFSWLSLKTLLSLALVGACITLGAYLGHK

For `CC1(O)CC[C@H](CN2CCN(c3ccc(C(=O)NS(=O)(=O)c4ccc(NCC5CCOCC5)c([N+](=O)[O-])c4)c(Oc4cnc5[nH]ccc5c4)c3)CC2)[C@@H](c2ccc(Cl)cc2)C1` (stereo partly drawn) [Compound 28, 4-[4-[[(1S,2S)-2-(4-chlorophenyl)-4-hydroxy-4-methyl-cyclohexyl]methyl]piperazin-1-yl]-N-[3-nitro-4-(tetrahydropyran-4-ylmethylamino)phenyl]sulfonyl-2-(1H-pyrrolo[2,3-b]pyridin-5-yloxy)benzamide], the IC50 (commonly the concentration needed to halve the response being measured) in data set [1] was under 5 nM; in data set [2] it was at most 2000 nM. Besides, the values for the CC50 in data set [3] and in data set [4] were 100 to 200 nM and 2000 to 10000 nM, respectively. Besides, the 50% cytotoxic concentration (CC50) (usually the concentration giving 50% cytotoxicity) at 3 days in data set [5] was over 25000 nM. Also, in data set [6], the EC50 is 100 to 250 nM.

On to `O=C(NS(=O)(=O)c1ccc(NCC2CCOCC2)c([N+](=O)[O-])c1)c1ccc(N2CCN(C[C@H]3Cc4ccccc4CN3C(=O)C3CC3)CC2)cc1Oc1cnc2[nH]ccc2c1` [Compound 33, 4-[4-[[(3R)-2-(cyclopropanecarbonyl)-3,4-dihydro-1H-isoquinolin-3-yl]methyl]piperazin-1-yl]-N-[3-nitro-4-(tetrahydropyran-4-ylmethylamino)phenyl]sulfonyl-2-(1H-pyrrolo[2,3-b]pyridin-5-yloxy)benzamide], for which the IC50 is 10 to 50 nM in data set [1] and over 4000 nM in data set [2]. Also, the CC50 in data set [3] was over 200 nM; in data set [4], 2000 to 10000 nM. For the same compound, the CC50 at 3 days in data set [5] was over 25000 nM. Further, in data set [6], the EC50 is over 250 nM.

`O=C(NS(=O)(=O)c1ccc(NCC2CCOCC2)c([N+](=O)[O-])c1)c1ccc(N2CCN(C[C@@H]3Cc4ccccc4CN3C(=O)c3ccc(Cl)s3)CC2)cc1Oc1cnc2[nH]ccc2c1` [Compound 35, 4-[4-[[(3S)-2-(5-chlorothiophene-2-carbonyl)-3,4-dihydro-1H-isoquinolin-3-yl]methyl]piperazin-1-yl]-N-[3-nitro-4-(tetrahydropyran-4-ylmethylamino)phenyl]sulfonyl-2-(1H-pyrrolo[2,3-b]pyridin-5-yloxy)benzamide]: the half-inhibitory concentration (IC50) in data set [1] is over 50 nM; in data set [2] it was over 4000 nM. The CC50 in data set [3] was over 200 nM; in data set [4], 2000 to 10000 nM. Moreover, the CC50 at 3 days in data set [5] was over 25000 nM. In addition, the EC50 in data set [6] was over 250 nM.

Consider `O=C(NS(=O)(=O)c1ccc(NCC2CCOCC2)c([N+](=O)[O-])c1)c1ccc(N2CCN(C[C@@H]3Cc4ccccc4CN3C(=O)c3ccsc3)CC2)cc1Oc1cnc2[nH]ccc2c1` [Compound 36, N-[3-nitro-4-(tetrahydropyran-4-ylmethylamino)phenyl]sulfonyl-2 (1H-pyrrolo[2,3-b]pyridin-5-yloxy)-4-[4-[[(3S)-2-(thiophene-3 carbonyl)-3,4-dihydro-1H-isoquinolin-3-yl]methyl]piperazin 1-yl]benzamide], for which the IC50 in data set [1] was over 50 nM; in data set [2] it was over 4000 nM. Moreover, the CC50 is over 200 nM in data set [3] and 2000 to 10000 nM in data set [4]. In data set [5], the CC50 at 3 days lay in the range of 10000 to 25000 nM. In data set [6], the EC50 was over 250 nM.

Regarding `CC1(C)CN(CC2CCN(c3ccc(C(=O)NS(=O)(=O)c4ccc(NCC5CCOCC5)c([N+](=O)[O-])c4)c(Oc4cnc5[nH]ccc5c4)c3)CC2)Cc2ccccc21` [Compound 39, 4-[4-[(4,4-dimethyl-1,3-dihydroisoquinolin-2-yl)methyl]-1-piperidyl]-N-[3-nitro-4-(tetrahydropyran-4-ylmethylamino)phenyl]sulfonyl-2-(1H-pyrrolo[2,3-b]pyridin-5-yloxy)benzamide], the IC50 in data set [1] was over 50 nM; in data set [2], over 4000 nM. The CC50 in data set [3] is over 200 nM; in data set [4], 2000 to 10000 nM. Besides, the CC50 at 3 days in data set [5] was over 25000 nM. Also, the EC50 in data set [6] is over 250 nM.

For the compound `CC(C)C(=O)N1Cc2ccc(Cl)cc2C[C@H]1CN1CCN(c2ccc(C(=O)NS(=O)(=O)c3ccc(NCC4CCOCC4)c([N+](=O)[O-])c3)c(Oc3cnc4[nH]ccc4c3)c2)CC1` [Compound 40, 4-[4-[[(3S)-6-chloro-2-(2-methylpropanoyl)-3,4-dihydro-1H-isoquinolin-3-yl]methyl]piperazin-1-yl]-N-[3-nitro-4-(tetrahydropyran-4-ylmethylamino)phenyl]sulfonyl-2-(1H-pyrrolo[2,3-b]pyridin-5-yloxy)benzamide], the IC50 in data set [1] was over 50 nM; in data set [2], over 4000 nM. Moreover, the results for the CC50 in data set [3] and in data set [4] were over 200 nM and 2000 to 10000 nM, respectively. In addition, the CC50 at 3 days in data set [5] is 10000 to 25000 nM. Further, the EC50 in data set [6] is over 250 nM.

As for `O=C(NS(=O)(=O)c1ccc(NCC2CCOCC2)c([N+](=O)[O-])c1)c1ccc(N2CCC(CN3Cc4ccccc4CC3c3ccccc3)CC2)cc1Oc1cnc2[nH]ccc2c1` (stereo not drawn) [Compound 41, N-[3-nitro-4-(tetrahydropyran-4-ylmethylamino)phenyl]sulfonyl-4-[4-[(3-phenyl-3,4-dihydro-1H-isoquinolin-2-yl)methyl]-1-piperidyl]-2-(1H-pyrrolo[2,3-b]pyridin-5-yloxy)benzamide], the IC50 in data set [1] is over 50 nM; in data set [2] it was over 4000 nM. For the same compound, the CC50 in data set [3] was over 200 nM; in data set [4], 2000 to 10000 nM. Further, the CC50 at 3 days in data set [5] is over 25000 nM. In addition, the EC50 in data set [6] is over 250 nM.

Consider `O=C(NS(=O)(=O)c1ccc(NCC2CCOCC2)c([N+](=O)[O-])c1)c1ccc(N2CCN(CC(O)(c3ccccc3)c3ccc(Cl)cc3)CC2)cc1Oc1cnc2[nH]ccc2c1` (stereo not drawn) [Compound 43, 4-[4-[2-(4-chlorophenyl)-2-hydroxy-2-phenyl-ethyl]piperazin-1-yl]-N-[3-nitro-4-(tetrahydropyran-4-ylmethylamino)phenyl]sulfonyl-2-(1H-pyrrolo[2,3-b]pyridin-5-yloxy)benzamide], for which the IC50 in data set [1] was over 50 nM; in data set [2] it was over 4000 nM. Besides, the CC50 is over 200 nM in data set [3] and 2000 to 10000 nM in data set [4]. The CC50 at 3 days in data set [5] was over 25000 nM. Also, in data set [6], the EC50 is over 250 nM.

With `CC(C)C(=O)N1Cc2ccc(F)cc2C[C@H]1CN1CCN(c2ccc(C(=O)NS(=O)(=O)c3ccc(NCC4CCOCC4)c([N+](=O)[O-])c3)c(Oc3cnc4[nH]ccc4c3)c2)CC1` [Compound 45, 4-[4-[[(3S)-6-fluoro-2-(2-methylpropanoyl)-3,4-dihydro-1H-isoquinolin-3-yl]methyl]piperazin-1-yl]-N-[3-nitro-4-(tetrahydropyran-4-ylmethylamino)phenyl]sulfonyl-2-(1H-pyrrolo[2,3-b]pyridin-5-yloxy)benzamide], the IC50 is over 50 nM in data set [1] and over 4000 nM in data set [2]. The CC50 in data set [3] is over 200 nM; in data set [4], over 10000 nM. Moreover, the CC50 at 3 days in data set [5] was over 25000 nM. In addition, the EC50 in data set [6] is over 250 nM.

As to `O=C(NS(=O)(=O)c1ccc(NCC2CCOCC2)c([N+](=O)[O-])c1)c1ccc(N2CCC(CN3Cc4ccccc4C4(CCC4)C3)CC2)cc1Oc1cnc2[nH]ccc2c1` [Compound 46, N-[3-nitro-4-(tetrahydropyran-4-ylmethylamino)phenyl]sulfonyl-2-(1H-pyrrolo[2,3-b]pyridin-5-yloxy)-4-[4-(spiro[1,3-dihydroisoquinoline-4,1′-cyclobutane]-2-ylmethyl)-1-piperidyl]benzamide], the figures for the IC50 in data set [1] and in data set [2] were over 50 nM and over 4000 nM, respectively. For the same compound, the CC50 in data set [3] is over 200 nM; in data set [4], 2000 to 10000 nM. In data set [5], the CC50 at 3 days is over 25000 nM. Besides, the EC50 in data set [6] is over 250 nM.
